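A five-concentration, 48-hour dose response in 96-well plates underlies each endpoint, interpolated linearly between surrounding concentrations. The concentration for 50% growth inhibition is given as GI50. TGI is the concentration that stops growth completely.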
Experiments:
Assay in all cases: DTP human tumour cell line panel, 48 h
SF-268 CNS = test system: SF-268 CNS
EKVX NSCLC = test system: EKVX NSCLC
MDA-MB-231 breast = test system: MDA-MB-231 breast
RPMI-8226 leukemia = test system: RPMI-8226 leukemia
COLO 205 colon = test system: COLO 205 colon
HL-60(TB) leukemia = test system: HL-60(TB) leukemia
NCI-H23 lung = test system: NCI-H23 lung
RXF 393 renal = test system: RXF 393 renal
OVCAR-8 ovarian = test system: OVCAR-8 ovarian
OVCAR-5 ovarian = test system: OVCAR-5 ovarian
IGROV1 ovarian = test system: IGROV1 ovarian
HCT-15 colon = test system: HCT-15 colon
CAKI-1 renal = test system: CAKI-1 renal
K-562 leukemia = test system: K-562 leukemia
NCI-H522 lung = test system: NCI-H522 lung
OVCAR-4 ovarian = test system: OVCAR-4 ovarian
HS 578T breast = test system: HS 578T breast
OVCAR-3 ovarian = test system: OVCAR-3 ovarian
SF-539 CNS = test system: SF-539 CNS
SK-OV-3 ovarian = test system: SK-OV-3 ovarian
HCC-2998 colon = test system: HCC-2998 colon
SR leukemia = test system: SR leukemia
MALME-3M melanoma = test system: MALME-3M melanoma
MOLT-4 leukemia = test system: MOLT-4 leukemia
786-0 renal = test system: 786-0 renal
BT-549 breast = test system: BT-549 breast
UACC-257 melanoma = test system: UACC-257 melanoma
LOX IMVI melanoma = test system: LOX IMVI melanoma
CCRF-CEM leukemia = test system: CCRF-CEM leukemia
HCT-116 colon = test system: HCT-116 colon
UO-31 renal = test system: UO-31 renal
SN12C renal = test system: SN12C renal
U251 CNS = test system: U251 CNS
SK-MEL-2 melanoma = test system: SK-MEL-2 melanoma
A549 NSCLC = test system: A549 NSCLC
HT29 colon = test system: HT29 colon
KM12 colon = test system: KM12 colon
SK-MEL-5 melanoma = test system: SK-MEL-5 melanoma
HOP-92 NSCLC = test system: HOP-92 NSCLC
NCI-H226 lung = test system: NCI-H226 lung
HOP-62 NSCLC = test system: HOP-62 NSCLC
MCF7 breast = test system: MCF7 breast
NCI/ADR-RES ovarian = test system: NCI/ADR-RES ovarian
DU-145 prostate = test system: DU-145 prostate
SW-620 colon = test system: SW-620 colon
ACHN renal = test system: ACHN renal
TK-10 renal = test system: TK-10 renal
MDA-MB-435 = test system: MDA-MB-435
SK-MEL-28 melanoma = test system: SK-MEL-28 melanoma
A498 renal = test system: A498 renal
SNB-75 CNS = test system: SNB-75 CNS
T-47D breast = test system: T-47D breast
SF-295 CNS = test system: SF-295 CNS
NCI-H460 lung = test system: NCI-H460 lung
PC-3 prostate = test system: PC-3 prostate
M14 melanoma = test system: M14 melanoma
SNB-19 CNS = test system: SNB-19 CNS

## CO[C@@H]1CCN(c2nccc(Nc3cc4c(C(C)C)ccc(N5CC(CS(C)(=O)=O)[C@H]5C)c4cn3)n2)C[C@@H]1F (some centres undefined)
SF-268 CNS
  GI50: 3.98 µM
  TGI: > 100 µM
EKVX NSCLC
  GI50: 1.21 µM
  TGI: > 100 µM
MDA-MB-231 breast
  GI50: 8.77 µM
  TGI: > 100 µM
RPMI-8226 leukemia
  GI50: 2.14 µM
  TGI: 7.33 µM
COLO 205 colon
  GI50: 4.71 µM
  TGI: > 100 µM
HL-60(TB) leukemia
  GI50: 3.06 µM
  TGI: > 100 µM
NCI-H23 lung
  GI50: 3.7 µM
  TGI: 20.4 µM
RXF 393 renal
  GI50: 2.96 µM
  TGI: 7.65 µM
OVCAR-8 ovarian
  GI50: 2.83 µM
  TGI: > 100 µM
OVCAR-5 ovarian
  GI50: 6.36 µM
  TGI: > 100 µM
IGROV1 ovarian
  GI50: 1.03 µM
  TGI: 7.13 µM
HCT-15 colon
  GI50: 2.84 µM
  TGI: 14.4 µM
CAKI-1 renal
  GI50: 2.32 µM
  TGI: > 100 µM
K-562 leukemia
  GI50: 2.9 µM
  TGI: > 100 µM
NCI-H522 lung
  GI50: 1.69 µM
  TGI: 8.25 µM
OVCAR-4 ovarian
  GI50: 2.92 µM
  TGI: 53.1 µM
HS 578T breast
  GI50: 4.26 µM
  TGI: 41.5 µM
OVCAR-3 ovarian
  GI50: 3.07 µM
  TGI: > 100 µM
SF-539 CNS
  GI50: 5.05 µM
  TGI: 24.3 µM
SK-OV-3 ovarian
  GI50: 7.42 µM
  TGI: > 100 µM
HCC-2998 colon
  GI50: 4.55 µM
  TGI: 36 µM
SR leukemia
  GI50: 2.87 µM
  TGI: 32.7 µM
MALME-3M melanoma
  GI50: 3.76 µM
  TGI: 15.6 µM
MOLT-4 leukemia
  GI50: 2.98 µM
  TGI: > 100 µM
786-0 renal
  GI50: 7.18 µM
  TGI: > 100 µM
BT-549 breast
  GI50: 4.55 µM
  TGI: 35.4 µM
UACC-257 melanoma
  GI50: 4.91 µM
  TGI: 41.1 µM
LOX IMVI melanoma
  GI50: 4.34 µM
  TGI: 16.8 µM
CCRF-CEM leukemia
  GI50: 4.55 µM
  TGI: > 100 µM
HCT-116 colon
  GI50: 3.26 µM
  TGI: > 100 µM
UO-31 renal
  GI50: 1.41 µM
  TGI: 11.9 µM
SN12C renal
  GI50: 3.35 µM
  TGI: > 100 µM
U251 CNS
  GI50: 4.31 µM
  TGI: > 100 µM
SK-MEL-2 melanoma
  GI50: 4.7 µM
  TGI: 17.6 µM
A549 NSCLC
  GI50: 3.06 µM
  TGI: > 100 µM
HT29 colon
  GI50: 3.1 µM
  TGI: 12.1 µM
KM12 colon
  GI50: 3.14 µM
  TGI: > 100 µM
SK-MEL-5 melanoma
  GI50: 2.22 µM
  TGI: 5.42 µM
HOP-92 NSCLC
  GI50: 10.6 µM
  TGI: > 100 µM
NCI-H226 lung
  GI50: 6.17 µM
  TGI: 62.9 µM
HOP-62 NSCLC
  GI50: 4.46 µM
  TGI: > 100 µM
MCF7 breast
  GI50: 3.15 µM
  TGI: 14.8 µM
NCI/ADR-RES ovarian
  GI50: 2.81 µM
  TGI: 9.74 µM
DU-145 prostate
  GI50: 2.45 µM
  TGI: 45.1 µM
SW-620 colon
  GI50: 5.13 µM
  TGI: > 100 µM
ACHN renal
  GI50: 1.33 µM
  TGI: 44.6 µM
TK-10 renal
  GI50: 0.843 µM
  TGI: 19.9 µM
MDA-MB-435
  GI50: 4.96 µM
  TGI: 83.9 µM
SK-MEL-28 melanoma
  GI50: 5.52 µM
  TGI: > 100 µM
A498 renal
  GI50: 10.1 µM
  TGI: 44.7 µM
SNB-75 CNS
  GI50: 5.85 µM
  TGI: > 100 µM
T-47D breast
  GI50: 2.47 µM
  TGI: 13.4 µM
SF-295 CNS
  GI50: 3.15 µM
  TGI: 10.1 µM
NCI-H460 lung
  GI50: 3.51 µM
  TGI: 20.5 µM
PC-3 prostate
  GI50: 3.52 µM
  TGI: > 100 µM
M14 melanoma
  GI50: 5.93 µM
  TGI: > 100 µM
SNB-19 CNS
  GI50: 5.19 µM
  TGI: > 100 µM

From PubChem BioAssay (NCI)
